The values that follow come from patent US20090175882A1, “METHODS AND COMPOSITIONS FOR TREATING HYPERALGESIA” (IRM LLC, priority 2006, published 2009).

Molecules are shown by their SMILES. Entries after “also recorded” stand apart in the source; their conditions may differ.

Assay [1] has as its system bradykinin (BK)-induced heat hyperalgesia. Put plainly: Bradykinin-induced heat hyperalgesia. Format: in vivo. The conditions noted are these: mice.
Description: (§1) Red symbols represent responses from CFA-injected (A), or BK-injected (B) hindpaws while blue symbols represent responses from the other noninjected hindpaws of the same animals. Circles represent responses upon compound 18 treatment, whereas triangles represent responses upon vehicle treatments (A-C). Von Frey thresholds are measured and averaged. (***p<0.001, *p<0.05, two-tailed Student's T-test). […] Red symbols represent responses from CFA-injected hindpaws while blue symbols represent responses from the other non-injected hindpaws of the same animals. Number of flicks, licks, paw raises for 10 min at each time point are counted and averaged (n=8, *p<0.05, two-tailed Student's T-test).
(§2) Behavioral assays: Mice (C57B16 Mus musculus) of 8-10 weeks in age and 150-250 g Sprague Dawley rats were used for all behavioral assays. Animals were acclimated for 20-60 min to their testing environment prior to all experiments. Students' T test was used for all statistical calculations. All error bars represent standard error of the mean (SEM). Thermal plates, Hargreaves method (Plantar Analgesia meter) and Von Frey apparatus (Dynamic Plantar Aesthesiometer) were from UGO Basile and Columbus instruments. […] Briefly, mice were acclimated for 60 min to their testing environment prior to all experiments. Baseline responses were measured first and then 10 nM BK was injected to the skin of left hindpaws. Von Frey threshold or paw withdrawal latency was measured at 5, 15 and 30 min post injection. 1 mM of compound 18 was sometimes coinjected to left hindpaws to test its analgesic effect. For CFA-induced hyperalgesia test, 5 μg CFA in 10 uL was injected into mice (Caterina et al., Science 288:306, 2000; and Cao et al., Nature 392:390, 1998) and 50 μg in 100 uL (1:1 emulsion of mineral oil and saline; Obata et al., J Clin Invest 115:2393, 2005) was injected into rats and in 24 hrs measurements were performed. Before the measurement, the animals were re-acclimated to the environment for 20-60 min. […]
Assay [2] concerns CFA-induced mechanical hyperalgesia. In words: CFA-induced mechanical hyperalgesia (Von Frey threshold). Format: in vivo. The conditions noted are these: injected into hindpaw 24 hours after CFA, mice.
Description: as §1, §2
The target of the next assay is T1, TRPV3 (Mus musculus, UniProt Q8K424).
T1 construct: expressed in transfected cells; not restated for the selectivity test
T1 sequence (Q8K424 1-791): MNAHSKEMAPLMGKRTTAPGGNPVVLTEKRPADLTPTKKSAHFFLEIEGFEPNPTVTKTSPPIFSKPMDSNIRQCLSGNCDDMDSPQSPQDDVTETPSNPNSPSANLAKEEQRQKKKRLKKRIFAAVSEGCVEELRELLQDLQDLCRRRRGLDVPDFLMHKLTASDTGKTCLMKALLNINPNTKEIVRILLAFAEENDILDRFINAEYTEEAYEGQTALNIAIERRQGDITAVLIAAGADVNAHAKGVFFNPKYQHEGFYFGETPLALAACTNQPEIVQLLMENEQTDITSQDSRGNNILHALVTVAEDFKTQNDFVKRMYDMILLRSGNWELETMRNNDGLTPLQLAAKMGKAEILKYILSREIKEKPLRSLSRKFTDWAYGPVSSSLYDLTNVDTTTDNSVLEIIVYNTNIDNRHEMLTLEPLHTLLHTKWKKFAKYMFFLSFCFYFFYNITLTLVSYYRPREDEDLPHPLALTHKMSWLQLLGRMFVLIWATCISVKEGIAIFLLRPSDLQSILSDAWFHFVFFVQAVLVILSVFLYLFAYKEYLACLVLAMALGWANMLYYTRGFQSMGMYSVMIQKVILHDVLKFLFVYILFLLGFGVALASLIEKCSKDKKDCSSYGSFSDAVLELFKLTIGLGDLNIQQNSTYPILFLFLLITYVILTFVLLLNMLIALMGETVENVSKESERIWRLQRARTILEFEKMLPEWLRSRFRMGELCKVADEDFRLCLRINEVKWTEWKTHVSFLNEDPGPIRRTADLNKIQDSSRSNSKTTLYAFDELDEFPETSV
In words: ThermoTRP selectivity test. Type of assay: cell-based. To be noted: at 50 μM (data not shown).

Assay [3] concerns acute heat or pressure to the paw. Put plainly: Nociceptive responses to acute heat or pressure to the paw. Format: in vivo. To be noted: data not shown.
Assay [4] deals with T2, TRPA1 (Homo sapiens, UniProt O75762). Put plainly: TRPA1 block, test not specified. The conditions noted are these: summary statement.
Target sequence in this assay (O75762 whole entry, species assumed): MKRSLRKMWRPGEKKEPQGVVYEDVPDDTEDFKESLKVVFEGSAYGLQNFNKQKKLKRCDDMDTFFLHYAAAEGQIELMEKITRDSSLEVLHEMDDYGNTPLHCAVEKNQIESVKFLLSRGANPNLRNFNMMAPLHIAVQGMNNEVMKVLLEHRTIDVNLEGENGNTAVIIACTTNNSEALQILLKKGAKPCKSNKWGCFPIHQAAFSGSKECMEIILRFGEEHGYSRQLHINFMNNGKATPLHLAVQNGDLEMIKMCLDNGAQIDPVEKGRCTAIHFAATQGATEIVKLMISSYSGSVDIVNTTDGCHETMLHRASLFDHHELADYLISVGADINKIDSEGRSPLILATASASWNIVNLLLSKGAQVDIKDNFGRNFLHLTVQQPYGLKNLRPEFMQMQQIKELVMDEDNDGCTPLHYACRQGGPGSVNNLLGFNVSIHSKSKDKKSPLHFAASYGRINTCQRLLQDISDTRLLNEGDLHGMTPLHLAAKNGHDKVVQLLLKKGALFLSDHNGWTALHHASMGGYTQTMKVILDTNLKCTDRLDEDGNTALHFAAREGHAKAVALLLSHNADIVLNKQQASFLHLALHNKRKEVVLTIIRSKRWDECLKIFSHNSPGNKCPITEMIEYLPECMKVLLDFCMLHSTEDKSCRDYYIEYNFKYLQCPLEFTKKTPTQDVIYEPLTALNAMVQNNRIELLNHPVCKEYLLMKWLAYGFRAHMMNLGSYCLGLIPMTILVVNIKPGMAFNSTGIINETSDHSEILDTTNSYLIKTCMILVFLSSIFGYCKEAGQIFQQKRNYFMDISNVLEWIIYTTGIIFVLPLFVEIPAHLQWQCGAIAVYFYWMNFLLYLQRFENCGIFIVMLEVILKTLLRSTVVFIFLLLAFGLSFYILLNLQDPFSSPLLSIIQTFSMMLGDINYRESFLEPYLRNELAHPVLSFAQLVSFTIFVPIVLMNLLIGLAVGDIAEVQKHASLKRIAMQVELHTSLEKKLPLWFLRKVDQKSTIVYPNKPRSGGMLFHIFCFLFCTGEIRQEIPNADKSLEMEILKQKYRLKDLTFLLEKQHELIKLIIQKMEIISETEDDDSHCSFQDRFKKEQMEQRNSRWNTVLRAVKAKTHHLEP
The test system of assay [5] is BK-induced nociceptive mechanical behaviours. Put plainly: Bradykinin-induced mechanical hyperalgesia (Von Frey threshold). Type of assay: in vivo. To be noted: short term hyperalgesia model, 1 mM coinjected, mice.
Description: as §1
Behavioral assays: Mice (C57B16 Mus musculus) of 8-10 weeks in age and 150-250 g Sprague Dawley rats were used for all behavioral assays. Animals were acclimated for 20-60 min to their testing environment prior to all experiments. Students' T test was used for all statistical calculations. All error bars represent standard error of the mean (SEM). Thermal plates, Hargreaves method (Plantar Analgesia meter) and Von Frey apparatus (Dynamic Plantar Aesthesiometer) were from UGO Basile and Columbus instruments. […] Baseline responses were measured first and then 10 nM BK was injected to the skin of left hindpaws. Von Frey threshold or paw withdrawal latency was measured at 5, 15 and 30 min post injection. […]
Assay [6] deals with cinnamaldehyde-induced nociceptive events. Put plainly: Acute nociceptive behaviour after hindpaw injection of cinnamaldehyde. Type of assay: in vivo, mice. The conditions noted are these: cinnamaldehyde 16.4 mM coinjected with compound 18 1 mM.
Description: Time spent licking and flicking hindpaws injected with cinnamaldehyde (16.4 mM) or capsaicin (0.328 mM) is measured for 5 min and compared with the hindpaw of another animal coinjected with compound 18 (1 mM). Numbers of cases for each experiment from the left is 8, 8, 6 and 6, respectively (***p<0.001, *p<0.05, two-tailed Student's T-test).
We next set out to test if acute block of TRPA1 had any physiological consequence on pain sensation. […] To test the efficacy and specificity of compound 18 in vivo, we coinjected cinnamaldehyde and compound 18 in hindpaw of mice.
Behavioral assays: Mice (C57B16 Mus musculus) of 8-10 weeks in age and 150-250 g Sprague Dawley rats were used for all behavioral assays. Animals were acclimated for 20-60 min to their testing environment prior to all experiments. Students' T test was used for all statistical calculations. All error bars represent standard error of the mean (SEM). […] Briefly, mice were acclimated for 60 min to their testing environment prior to all experiments.
The target of a further assay is T3, mouse TRPA1 (Mus musculus, UniProt Q8BLA8).
T3 construct: expressed in transfected cells; host or cells: CHO cells (tetracycline-induced for PatchXpress; mTRPA1-pcDNA5 named for the transient labelling experiment)
T3 sequence (Q8BLA8 whole entry): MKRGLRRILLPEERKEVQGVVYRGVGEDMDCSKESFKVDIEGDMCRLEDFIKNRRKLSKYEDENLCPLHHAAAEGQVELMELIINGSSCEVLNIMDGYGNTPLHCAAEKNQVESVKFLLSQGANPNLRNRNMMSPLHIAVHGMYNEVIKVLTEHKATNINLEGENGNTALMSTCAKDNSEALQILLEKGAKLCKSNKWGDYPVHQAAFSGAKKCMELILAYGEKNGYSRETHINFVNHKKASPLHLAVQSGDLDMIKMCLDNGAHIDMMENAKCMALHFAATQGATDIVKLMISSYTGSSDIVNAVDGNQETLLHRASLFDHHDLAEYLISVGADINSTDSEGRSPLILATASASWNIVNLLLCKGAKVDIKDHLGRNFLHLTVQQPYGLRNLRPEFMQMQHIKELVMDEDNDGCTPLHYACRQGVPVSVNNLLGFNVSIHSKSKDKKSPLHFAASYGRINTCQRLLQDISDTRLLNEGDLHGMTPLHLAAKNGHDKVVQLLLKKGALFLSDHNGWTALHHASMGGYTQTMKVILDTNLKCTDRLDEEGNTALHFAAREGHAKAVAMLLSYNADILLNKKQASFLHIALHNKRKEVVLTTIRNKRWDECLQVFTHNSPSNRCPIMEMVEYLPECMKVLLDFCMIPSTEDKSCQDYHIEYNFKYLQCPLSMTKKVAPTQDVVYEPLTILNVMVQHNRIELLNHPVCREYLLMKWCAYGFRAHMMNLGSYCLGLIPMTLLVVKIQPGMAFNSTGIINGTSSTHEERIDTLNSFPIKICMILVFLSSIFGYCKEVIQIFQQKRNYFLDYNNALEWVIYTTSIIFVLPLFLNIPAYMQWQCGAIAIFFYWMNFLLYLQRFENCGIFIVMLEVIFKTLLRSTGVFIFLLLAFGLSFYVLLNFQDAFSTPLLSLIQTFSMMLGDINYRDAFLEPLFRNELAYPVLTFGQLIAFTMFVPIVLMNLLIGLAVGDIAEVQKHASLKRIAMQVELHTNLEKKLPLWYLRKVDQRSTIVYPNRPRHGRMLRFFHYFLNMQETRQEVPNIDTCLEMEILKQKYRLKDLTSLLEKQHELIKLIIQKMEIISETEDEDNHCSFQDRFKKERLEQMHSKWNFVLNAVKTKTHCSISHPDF
In words: FLIPR calcium-influx assay, block of cinnamaldehyde activation, CHO cells. To be noted: elicited by 50 μM cinnamaldehyde, CHO cells. Type of assay: cell-based.

In assay [7] the test system is TRPV1, TRPV2, TRPV3, TRPV4, or TRPM8. In words: Effect on other thermoTRPs (summary statement). Format: cell-based. From the text:
TRPA1 inhibitors that can be employed in the practice of the present invention include compounds that interferes with the expression, modification, regulation or activation of TRPA1, or compounds that down-regulates one or more of the normal biological activities of TRPA1 (e.g., its ion channel). […] Various TRPA1-specific antagonists can be used in the instant invention. Some of these TRPA1-specific inhibitors are identified by the present inventors, as described in the Examples below. These compounds can be obtained commercially or are otherwise described in the art. One such compound is Compound 18, (Z)-4-(4-chlorophynyl)-3-methylbut-3-en-2-oxime. This compound can be obtained commercially from Maybridge (Cornwall, UK). Another example is Compound 40, N,N′-Bis-(2-hydroxybenzyl)-2,5-diamino-2,5-dimethylhexane, which has been described in U.S. Pat. No. 4,129,556. […] Thus, these two compounds can be readily used to treat or alleviate mechanical hyperalgesia as described in more detail below.

The next assay concerns the target rat TRPA1 (Rattus norvegicus, UniProt Q6RI86). In words: Block of rat TRPA1 (data not shown). Type of assay: cell-based.
In assay [8] the target is T2, TRPA1. In words: FLIPR calcium-influx assay, block of cinnamaldehyde activation, CHO cells. Format: cell-based. Also noted: expressed in transfected cells. To be noted: elicited by 50 μM cinnamaldehyde.
Target sequence in this assay (O75762 whole entry): as the sequence (O75762 whole entry, species assumed) above
Description: (§3) Calcium influx was measured using a standard FLIPR assay, data points are the average of 4 wells (˜8,000 cells/well) and error bars show standard error. […] Data was generated using the FLIPR calcium-influx assay, n=3 wells (˜8,000 cells/well) and normalized to the maximal response. Bars show standard error and solid curves are hill equation fits from which EC50 values are derived.
(§4) Using FLIPR calcium-influx assay, we screened 43,648 small molecules for their ability to block cinnamaldehyde-activation of human TRPA1 in a CHO cell line.
(§5) FLIPR Screen: CHO cells expressing human TRPA1 were plated into 384 well plates at a concentration of ˜8,000 cells/well. Cells were transferred to phosphate-buffered saline (PBS) and loaded with the calcium sensitive dye FLUO-4 using the FLIPR Calcium 3 Assay Kit (Molecular Devices, Sunnyvale, Calif.) 1 hour prior to the assay. Assays were run using the FLIPR2 (Molecular Devices, Sunnyvale, Calif.). All compounds were diluted into PBS from a high concentration DMSO-based stock solution and added during data collection with the FLIPR2 internal pipette head. Final DMSO concentrations never exceeded 0.5%.
For assay [9], the system named is CFA-induced heat hyperalgesia. Put plainly: CFA-induced heat hyperalgesia. To be noted: mice. Format: in vivo.
Description: as §1, §2

Sequence of rat TRPA1 (Q6RI86 whole entry): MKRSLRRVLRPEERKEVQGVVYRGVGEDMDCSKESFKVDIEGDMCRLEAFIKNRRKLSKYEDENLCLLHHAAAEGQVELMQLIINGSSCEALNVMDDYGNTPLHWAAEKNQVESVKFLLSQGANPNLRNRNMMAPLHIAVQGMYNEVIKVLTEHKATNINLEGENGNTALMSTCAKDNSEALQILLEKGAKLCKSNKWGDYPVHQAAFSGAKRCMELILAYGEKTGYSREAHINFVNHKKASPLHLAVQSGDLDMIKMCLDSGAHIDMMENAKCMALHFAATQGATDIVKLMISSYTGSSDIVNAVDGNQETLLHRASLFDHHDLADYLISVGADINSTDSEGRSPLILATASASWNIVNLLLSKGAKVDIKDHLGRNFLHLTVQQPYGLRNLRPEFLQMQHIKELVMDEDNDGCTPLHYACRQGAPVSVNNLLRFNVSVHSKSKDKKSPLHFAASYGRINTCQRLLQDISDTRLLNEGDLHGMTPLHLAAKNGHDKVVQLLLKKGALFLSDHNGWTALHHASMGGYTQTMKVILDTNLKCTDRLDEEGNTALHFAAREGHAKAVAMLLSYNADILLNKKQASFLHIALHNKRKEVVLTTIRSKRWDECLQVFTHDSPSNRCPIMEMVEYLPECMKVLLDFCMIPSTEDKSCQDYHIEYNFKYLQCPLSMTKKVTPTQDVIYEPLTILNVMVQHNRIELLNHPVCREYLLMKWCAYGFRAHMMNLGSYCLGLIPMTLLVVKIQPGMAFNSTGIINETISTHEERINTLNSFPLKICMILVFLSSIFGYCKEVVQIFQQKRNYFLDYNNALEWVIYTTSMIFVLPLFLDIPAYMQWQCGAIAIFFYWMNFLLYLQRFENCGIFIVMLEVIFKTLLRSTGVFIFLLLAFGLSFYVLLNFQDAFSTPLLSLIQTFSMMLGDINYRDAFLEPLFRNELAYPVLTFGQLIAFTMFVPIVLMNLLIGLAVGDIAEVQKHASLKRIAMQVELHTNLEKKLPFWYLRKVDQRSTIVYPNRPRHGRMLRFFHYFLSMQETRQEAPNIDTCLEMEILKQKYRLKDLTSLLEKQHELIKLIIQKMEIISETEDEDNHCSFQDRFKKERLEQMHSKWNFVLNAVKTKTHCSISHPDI
Description for mouse TRPA1: as §3, §4, §5

Take `CC(=Cc1ccc(Cl)cc1)C(C)=NO` [Compound 18, (Z)-4-(4-chlorophynyl)-3-methylbut-3-en-2-oxime]: the BK-induced heat hyperalgesia result in assay [1] was “not thermal (heat) behaviours; also recorded: did not block”. In addition, the CFA-induced mechanical hyperalgesia result in assay [2] is on record as “reverses; also recorded: relieved”. Moreover, the “block of TRPV3” value at TRPV3 was “did not block”. The “nociceptive responses to acute heat to the paw” value in assay [3] is on record as “not affected”. Also, in assay [3], the “nociceptive responses to acute pressure to the paw” value was “not affected”. Further, the “inhibition of TRPA1 activation or function” value against TRPA1 [4] is given as “specifically inhibit TRPA1 activation or function”. Besides, the “BK-induced mechanical nociceptive behavior” value in [5] was “reverses”. The “cinnamaldehyde-induced nociceptive events (time spent licking and flicking hindpaw, 5 min)” value in assay [6] is “suppresses; also recorded: significantly blocked”. Further, the IC50 at mouse TRPA1 was 4.5 µM; at TRPA1 [8], 3.1 µM. Moreover, the “effect on activation or activities of the other thermoTRPs” value in assay [7] was “little or no effect”. Further, at rat TRPA1, the “block of rat TRPA1” value is recorded as “blocked”. Also, the CFA-induced heat hyperalgesia entry in assay [9] is given as “not thermal (heat) behaviours; also recorded: did not block”.
